Measured values taken from patent US4171363A, “1,2,3-Thiadiazole process” (priority 1978, dated 1979).
Where a name gives a salt, the structure may show the parent alone.

Tests used:
[1] = tested on: spontaneous hypertensive rats; test: antihypertensive activity by oral administration to spontaneous hypertensive rats; type: in vivo, rat; settings: for ED50 / Antihypertensive Activity Ratio (A): oral, spontaneous hypertensive rat; for ED50: read-out: Antihypertensive ED50 mm Hg; for Antihypertensive Activity Ratio (A): relative to prazosin
Method: (§1) In Table 1, antihypertensive activity was determined by oral administration to spontaneous hypertensive rats, the in vitro α-adrenergic receptor blocking effect was determined according to the following test method.

α-adrenergic receptor [2] = target: T1, α-adrenergic receptor (Rattus norvegicus, UniProt P43140); test: isolated rat seminal vesicle assay, in vitro α-adrenergic receptor blocking effect against norepinephrine; settings: relative to prazosin; isolated rat seminal vesicle, test compound 10 nanograms/ml, norepinephrine agonist
T1 construct: Seminal vesicles were removed and transferred to a shallow disk containing modified Tyrode's solution; from tissue; host or cells: isolated seminal vesicle of male Long Evans rats
T1 sequence (P43140 1-466): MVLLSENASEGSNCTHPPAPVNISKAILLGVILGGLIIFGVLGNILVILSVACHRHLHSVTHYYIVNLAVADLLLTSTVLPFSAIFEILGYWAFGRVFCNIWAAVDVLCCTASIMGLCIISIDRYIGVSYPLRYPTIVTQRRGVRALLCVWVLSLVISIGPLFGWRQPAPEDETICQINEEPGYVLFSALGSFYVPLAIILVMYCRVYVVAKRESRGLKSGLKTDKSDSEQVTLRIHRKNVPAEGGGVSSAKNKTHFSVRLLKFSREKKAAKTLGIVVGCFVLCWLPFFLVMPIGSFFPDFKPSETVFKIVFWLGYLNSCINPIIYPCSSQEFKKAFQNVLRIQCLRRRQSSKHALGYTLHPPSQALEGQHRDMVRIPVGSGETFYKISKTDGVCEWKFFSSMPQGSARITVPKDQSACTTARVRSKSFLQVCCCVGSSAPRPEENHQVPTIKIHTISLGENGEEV
Method: as §1
(§2) Dungan et al, Int. […] Lietch et al, Brit.
(§3) Male Long Evans rats weighing approximately 300 g. were sacrificed by a sharp blow on the head. Seminal vesicles were removed and transferred to a shallow disk containing modified Tyrode's solution. The vesicles were emptied of their contents by squeezing them gently with a pair of forceps. Silk thread (4-0) was attached to both ends of the vesicle and it was suspended in a 20 ml. muscle chamber containing modified oxygenated Tyrode's solution (g./liter: NaCl 8, KCl 0.2, CaCl2 0.26, NaHCO3 1, Na2 HPO4 0.0575, glucose 0.5 and MgCl2 0.02). The bathing fluid was maintained at 37° C. with a thermostatically controlled isolated organ tissue bath. Contractions were recorded isometrically by means of a force displacement transducer and recordings were made with a Beckman RP Dynograph. Norepinephrine (NE) was added to the muscle chamber in volumes ranging from 0.1 to 0.4 ml. with a one ml. syringe attached to a 3 inch 20 gauge needle. NE and test compounds were dissolved in deionized water.
(§4) NE response curves were obtained alone and in the presence of test compounds. NE was allowed to remain in contact with the strip until a maximal contraction was obtained. The strip was then washed with the perfusion fluid for 15-30 seconds and the preparation was allowed to return to base line before a subsequent dose of NE was given. Increasing amounts of NE were injected into the bath in the same manner until a complete dose response was obtained.
(§5) The seminal vesicles used to obtain the control NE dose response were discarded and new preparations were placed in the tissue bath for evaluation of the test compound. The test compound was added directly to the perfursion fluid (10 nanograms/ml.) and the strips were allowed to remain in contact with the bathing media for at least 10 minutes before the NE dose response was determined.
(§6) ED50 values for NE were obtained by regression analysis as described by Finney, Probit. Analysis, 2d Ed., Cambridge (1964). A minimum of 4 strips and at least 4 doses were employed to calculate the regression lines. The ED50 value is defined as the concentration of NE which produces a contraction equal to 50% of the maximal contraction.

α-adrenergic receptor [3] = test: as above; settings: antihypertensive activity ratio (A) over α-adrenergic blocking activity ratio (B)
Method: as §1, §2, §3, §4, §5, §6

humans = settings: cited from earlier work
patients = settings: human, in vivo; cited from earlier work

| Compound | reduction in systolic blood pressure ([1]; 24 hours after oral dose of 10 mg./kg., spontaneous hypertensive rats) [%] | ED50 [1] [mg/kg] | Antihypertensive Activity Ratio (A) [1] | α-Adr. Bl. Activity Ratio (B) (α-adrenergic receptor [2]) | Ratio A/B (α-adrenergic receptor [3]) | antihypertensive strength compared to prazosin (in words) (humans; clinical daily dose approximately 150 to 500 mg. for trimazosin, 1.5 to 15 mg. for prazosin) | antihypertensive activity in humans (in words) (humans; humans) | adverse reactions, recent reports (in words) (patients) |
| --- | --- | --- | --- | --- | --- | --- | --- | --- |
| CCOC(=O)Nc1snnc1C(=O)N1CCN(c2nc(N)c3cc(OC)c(OC)cc3n2)CC1 [Example 1, 4-Amino-6,7-dimethoxy-2-[4-(5-ethoxycarbonylamino-1,2,3-thiadiazole-4-carbonyl)-piperazin-1-vl]-quinazoline Hydrochloride] | 22 | 2.8 | 0.75 | 0.15 | 5.0 |  |  |  |
| COc1cc2nc(N3CCN(C(=O)c4csnn4)CC3)nc(N)c2cc1OC.Cl [Example 2, 4Amino-6,7-dimethoxy-2-[4-(1,2,3-thiadiazole-4-carbonyl)piperazin-1-yl]quinazoline Hydrochloride] |  | 4 | 0.53 | 0.27 | 2.0 |  |  |  |
| COc1cc2nc(N3CCN(C(=O)c4cnns4)CC3)nc(N)c2cc1OC.Cl [Example 3, 4-Amino-6,7-dimethoxy-2-[4-(1,2,3-thiadiazole-5-carbonyl)piperazin-1-yl]quinazoline Hydrochloride] |  | 4 | 0.53 | 0.23 | 2.3 |  |  |  |
| COc1cc2c(N)nc(N3CCN(C(=O)OCC(C)(C)O)CC3)nc2c(OC)c1OC [Trimazosin] |  |  |  |  |  | much weaker drug than prazosin | active in humans as an antihypertensive agent |  |
| COc1cc2nc(N3CCN(C(=O)c4ccco4)CC3)nc(N)c2cc1OC [prazosin, 2-[4-(2-furoyl)-piperazin-1-yl]-4-amino-6,7-dimethoxyquinazoline, reference compound] |  | 2.1 |  |  |  |  |  | severe adverse reactions of postural hypotension in some patients |
